In ChEMBL document CHEMBL5724914, “Linking interpersonal differences in gut microbiota composition and drug biotransformation activity” (2024):

What was measured:
[1] = human gut metagenome, 24 h, 2 µM
[2] = human gut metagenome, 24 h, 2 µM; remark: listed apart in the source
[3] = human gut metagenome, 24 h, 2 µM; remark: listed apart in the source
[4] = (§1) The drug is tested on WLS-007 corresponding to human gut metagenome with ENA study accession number: PRJEB37062 and ENA sample accession number: ERS12561742 for biotransformation under anaerobic condition. The drug concentrations were measured over 9 timepoints collected between 0 and 24 hours of incubation by liquid-chromatography-coupled mass spectrometry (LC–MS); conditions: 2 µM
[5] = as §1, with “WLS-370” for “WLS-007”, “ERS12561793” for “ERS12561742”; conditions: 2 µM
[6] = human gut metagenome, 24 h, 2 µM; remark: listed apart in the source
[7] = human gut metagenome, 24 h, 2 µM; remark: listed apart in the source
[8] = human gut metagenome, 24 h, 2 µM; remark: listed apart in the source
[9] = as §1, with “WLS-170” for “WLS-007”, “ERS12561762” for “ERS12561742”; conditions: 2 µM
[10] = as §1, with “WLS-220” for “WLS-007”, “ERS12561769” for “ERS12561742”; conditions: 2 µM
[11] = human gut metagenome, 24 h, 2 µM; remark: listed apart in the source
[12] = human gut metagenome, 24 h, 2 µM; remark: listed apart in the source
[13] = human gut metagenome, 24 h, 2 µM; remark: listed apart in the source
[14] = as §1, with “WLS-010” for “WLS-007”, “ERS12561743” for “ERS12561742”; conditions: 2 µM
[15] = as §1, with “Z-012” for “WLS-007”, “to” for “to human gut”, “ERS12561812” for “ERS12561742”; conditions: 2 µM
[16] = as §1, with “Z-014” for “WLS-007”, “rat” for “human”, “ERS12561814” for “ERS12561742”; conditions: 2 µM
[17] = as §1, with “Z-017” for “WLS-007”, “mouse” for “human”, “ERS12561816” for “ERS12561742”; conditions: 2 µM
[18] = as §1, with “Z-018” for “WLS-007”, “pig” for “human”, “ERS12561817” for “ERS12561742”; conditions: 2 µM
[19] = as §1, with “Z-025” for “WLS-007”, “rabbit” for “human”, “ERS12561824” for “ERS12561742”; conditions: 2 µM
Also: call rule not given here.

Row | Structure (SMILES) | Bacterial Biotransformation [1] | Bacterial Biotransformation [2] | Bacterial Biotransformation [3] | Bacterial Biotransformation [4] | Bacterial Biotransformation [5] | Bacterial Biotransformation [6] | Bacterial Biotransformation [7] | Bacterial Biotransformation [8] | Bacterial Biotransformation [9] | Bacterial Biotransformation [10] | Bacterial Biotransformation [11] | Bacterial Biotransformation [12] | Bacterial Biotransformation [13] | Bacterial Biotransformation [14] | Bacterial Biotransformation [15] | Bacterial Biotransformation [16] | Bacterial Biotransformation [17] | Bacterial Biotransformation [18] | Bacterial Biotransformation [19]
1 | CN(C)CCc1c[nH]c2ccc(CS(=O)(=O)N3CCCC3)cc12 [ALMOTRIPTAN] | Compound NOT metabolized | Compound NOT metabolized | Compound NOT metabolized | Compound NOT metabolized | Compound NOT metabolized | Compound NOT metabolized | Compound metabolized | Compound NOT metabolized | Compound metabolized | Compound NOT metabolized | Compound NOT metabolized | Compound metabolized | Compound NOT metabolized | Compound NOT metabolized | – | – | – | – | –
2 | CC(=O)Oc1ccc(C(c2ccc(OC(C)=O)cc2)c2ccccn2)cc1 [BISACODYL] | Compound metabolized | Compound metabolized | Compound metabolized | Compound metabolized | Compound metabolized | Compound metabolized | Compound metabolized | Compound metabolized | Compound metabolized | Compound metabolized | Compound metabolized | Compound metabolized | Compound metabolized | Compound metabolized | – | – | – | – | –
3 | COCCCC/C(=N\OCCN)c1ccc(C(F)(F)F)cc1.O=C(O)/C=C\C(=O)O [FLUVOXAMINE MALEATE] | Compound metabolized | Compound NOT metabolized | Compound NOT metabolized | Compound NOT metabolized | Compound metabolized | Compound NOT metabolized | Compound metabolized | Compound NOT metabolized | Compound NOT metabolized | Compound metabolized | Compound NOT metabolized | Compound NOT metabolized | Compound NOT metabolized | Compound NOT metabolized | – | – | – | – | –
4 | CN1CCN(C2=Nc3ccccc3Oc3ccc(Cl)cc32)CC1.O=C(O)CCC(=O)O [LOXAPINE SUCCINATE] | Compound NOT metabolized | Compound NOT metabolized | Compound NOT metabolized | Compound NOT metabolized | Compound NOT metabolized | Compound NOT metabolized | Compound NOT metabolized | Compound NOT metabolized | Compound NOT metabolized | Compound NOT metabolized | Compound NOT metabolized | Compound NOT metabolized | Compound NOT metabolized | Compound NOT metabolized | – | – | – | – | –
5 | CCOC(=O)C1=C(C)NC(C)=C(C(=O)OC)C1c1cccc([N+](=O)[O-])c1 (configuration not stated) [NITRENDIPINE] | Compound metabolized | Compound metabolized | Compound metabolized | Compound NOT metabolized | Compound metabolized | Compound metabolized | Compound metabolized | Compound metabolized | Compound metabolized | Compound metabolized | Compound metabolized | Compound metabolized | Compound metabolized | Compound metabolized | – | – | – | – | –
6 | O=C([O-])C[C@H](O)C[C@H](O)/C=C/c1c(C2CC2)nc2ccccc2c1-c1ccc(F)cc1.O=C([O-])C[C@H](O)C[C@H](O)/C=C/c1c(C2CC2)nc2ccccc2c1-c1ccc(F)cc1.[Ca+2] [PITAVASTATIN CALCIUM] | Compound NOT metabolized | Compound NOT metabolized | Compound metabolized | Compound metabolized | Compound NOT metabolized | Compound NOT metabolized | Compound NOT metabolized | Compound metabolized | Compound NOT metabolized | Compound metabolized | Compound metabolized | Compound metabolized | Compound metabolized | Compound metabolized | – | – | – | – | –
7 | CNNCc1ccc(C(=O)NC(C)C)cc1 [PROCARBAZINE] | Compound metabolized | Compound NOT metabolized | Compound NOT metabolized | – | Compound metabolized | Compound NOT metabolized | Compound NOT metabolized | Compound NOT metabolized | Compound metabolized | – | Compound NOT metabolized | Compound metabolized | Compound metabolized | – | Compound metabolized | Compound NOT metabolized | – | – | –

Continued, values first:

Row | Bacterial Biotransformation [1] | Bacterial Biotransformation [2] | Bacterial Biotransformation [3] | Bacterial Biotransformation [4] | Bacterial Biotransformation [5] | Bacterial Biotransformation [6] | Bacterial Biotransformation [7] | Bacterial Biotransformation [8] | Bacterial Biotransformation [9] | Bacterial Biotransformation [10] | Bacterial Biotransformation [11] | Bacterial Biotransformation [12] | Bacterial Biotransformation [13] | Bacterial Biotransformation [14] | Bacterial Biotransformation [15] | Bacterial Biotransformation [16] | Bacterial Biotransformation [17] | Bacterial Biotransformation [18] | Bacterial Biotransformation [19] | Structure (SMILES)
8 | Compound metabolized | Compound NOT metabolized | Compound NOT metabolized | Compound metabolized | Compound NOT metabolized | Compound NOT metabolized | Compound metabolized | Compound metabolized | Compound metabolized | Compound metabolized | Compound NOT metabolized | Compound metabolized | Compound metabolized | Compound metabolized | – | – | – | – | – | CCCCC(=O)O[C@]1(C(=O)CO)[C@@H](C)C[C@H]2[C@@H]3CCC4=CC(=O)C=C[C@]4(C)[C@@]3(F)[C@@H](O)C[C@@]21C [BETAMETHASONE VALERATE]
9 | Compound metabolized | Compound NOT metabolized | Compound NOT metabolized | Compound NOT metabolized | Compound metabolized | Compound NOT metabolized | Compound metabolized | Compound NOT metabolized | Compound metabolized | Compound metabolized | Compound NOT metabolized | Compound metabolized | Compound NOT metabolized | Compound metabolized | – | – | – | – | – | Cc1nc(Nc2ncc(C(=O)Nc3c(C)cccc3Cl)s2)cc(N2CCN(CCO)CC2)n1 [DASATINIB ANHYDROUS]
10 | Compound NOT metabolized | Compound metabolized | Compound NOT metabolized | Compound NOT metabolized | Compound NOT metabolized | Compound NOT metabolized | Compound metabolized | Compound NOT metabolized | Compound metabolized | Compound metabolized | Compound NOT metabolized | Compound metabolized | Compound NOT metabolized | Compound NOT metabolized | – | – | – | – | – | N#Cc1ccc2c(c1)N(CCCN1CCC(O)CC1)c1ccccc1S2 [PERICIAZINE]
11 | – | Compound metabolized | Compound metabolized | Compound metabolized | Compound metabolized | Compound metabolized | Compound metabolized | Compound metabolized | Compound metabolized | Compound metabolized | Compound metabolized | Compound metabolized | Compound metabolized | Compound metabolized | Compound NOT metabolized | Compound NOT metabolized | Compound NOT metabolized | Compound NOT metabolized | Compound NOT metabolized | N#Cc1ccc2[nH]cc(CCCCN3CCN(c4ccc5oc(C(N)=O)cc5c4)CC3)c2c1 [VILAZODONE]
